Where a SMILES comes first, the peptide text is derived from it.
Key:
H1N1 virus = conditions: mouse, in vivo
[1] = Observation of autoimmunity in pre-clinical cohorts; format: in vivo; conditions: large pre-clinical cohorts (over 400 animals)
[2] = test system: primary T cell sMAC composed of sestrin and MAPK kinases; experiment: Biotinylated DOS pull down from human CD4+ T cell extracts; format: binding; conditions: overnight treatment, streptavidin IP, western blot, Fig 1H
[3] = test system: primary human CD4+ T cells; experiment: DOS-FITC incorporation by flow cytometry; format: cell-based; conditions: T cells depleted of all three sestrins by shRNAs; Fig 1F
[4] = test system: recombinant sestrins (sestrin1-FLAG, sestrin2-FLAG); experiment: In vitro pull down with biotinylated DOS, recombinant tagged proteins; format: binding; conditions: DOS-biotin 10 µM, streptavidin beads, anti-flag immunoblot; Fig 1C
[5] = target: T1, GATOR/mTOR complex proteins (MIOS and WDR59) (Homo sapiens, UniProt Q6PJI9+Q9NXC5); experiment: Biotinylated DOS pull down from human CD4+ T cell extracts; format: binding; conditions: overnight treatment, streptavidin IP, western blot, Fig 1H
T1 sequence (Q9NXC5 1-875): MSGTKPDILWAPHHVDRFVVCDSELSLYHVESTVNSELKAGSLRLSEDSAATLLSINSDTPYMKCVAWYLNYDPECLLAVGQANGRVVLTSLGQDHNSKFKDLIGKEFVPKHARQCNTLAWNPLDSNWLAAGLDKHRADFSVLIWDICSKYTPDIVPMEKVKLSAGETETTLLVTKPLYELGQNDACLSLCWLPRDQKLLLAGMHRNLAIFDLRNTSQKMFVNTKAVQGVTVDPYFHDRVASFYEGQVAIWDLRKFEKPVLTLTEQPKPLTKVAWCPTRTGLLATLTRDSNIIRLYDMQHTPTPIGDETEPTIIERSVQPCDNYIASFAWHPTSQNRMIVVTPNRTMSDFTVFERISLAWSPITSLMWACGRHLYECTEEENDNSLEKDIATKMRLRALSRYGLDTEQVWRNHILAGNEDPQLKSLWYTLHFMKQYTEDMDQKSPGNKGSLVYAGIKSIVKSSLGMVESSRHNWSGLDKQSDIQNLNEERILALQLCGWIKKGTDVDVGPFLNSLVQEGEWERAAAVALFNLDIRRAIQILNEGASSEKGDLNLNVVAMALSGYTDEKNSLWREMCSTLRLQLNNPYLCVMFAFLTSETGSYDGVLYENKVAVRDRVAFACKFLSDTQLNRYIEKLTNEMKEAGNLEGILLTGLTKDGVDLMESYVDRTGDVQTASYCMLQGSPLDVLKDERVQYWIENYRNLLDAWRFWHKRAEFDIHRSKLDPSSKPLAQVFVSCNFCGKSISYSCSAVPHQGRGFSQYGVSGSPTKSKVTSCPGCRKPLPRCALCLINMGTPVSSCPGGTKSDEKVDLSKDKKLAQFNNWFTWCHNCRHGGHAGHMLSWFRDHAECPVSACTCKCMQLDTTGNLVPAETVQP
T1 sequence (Q6PJI9 1-974): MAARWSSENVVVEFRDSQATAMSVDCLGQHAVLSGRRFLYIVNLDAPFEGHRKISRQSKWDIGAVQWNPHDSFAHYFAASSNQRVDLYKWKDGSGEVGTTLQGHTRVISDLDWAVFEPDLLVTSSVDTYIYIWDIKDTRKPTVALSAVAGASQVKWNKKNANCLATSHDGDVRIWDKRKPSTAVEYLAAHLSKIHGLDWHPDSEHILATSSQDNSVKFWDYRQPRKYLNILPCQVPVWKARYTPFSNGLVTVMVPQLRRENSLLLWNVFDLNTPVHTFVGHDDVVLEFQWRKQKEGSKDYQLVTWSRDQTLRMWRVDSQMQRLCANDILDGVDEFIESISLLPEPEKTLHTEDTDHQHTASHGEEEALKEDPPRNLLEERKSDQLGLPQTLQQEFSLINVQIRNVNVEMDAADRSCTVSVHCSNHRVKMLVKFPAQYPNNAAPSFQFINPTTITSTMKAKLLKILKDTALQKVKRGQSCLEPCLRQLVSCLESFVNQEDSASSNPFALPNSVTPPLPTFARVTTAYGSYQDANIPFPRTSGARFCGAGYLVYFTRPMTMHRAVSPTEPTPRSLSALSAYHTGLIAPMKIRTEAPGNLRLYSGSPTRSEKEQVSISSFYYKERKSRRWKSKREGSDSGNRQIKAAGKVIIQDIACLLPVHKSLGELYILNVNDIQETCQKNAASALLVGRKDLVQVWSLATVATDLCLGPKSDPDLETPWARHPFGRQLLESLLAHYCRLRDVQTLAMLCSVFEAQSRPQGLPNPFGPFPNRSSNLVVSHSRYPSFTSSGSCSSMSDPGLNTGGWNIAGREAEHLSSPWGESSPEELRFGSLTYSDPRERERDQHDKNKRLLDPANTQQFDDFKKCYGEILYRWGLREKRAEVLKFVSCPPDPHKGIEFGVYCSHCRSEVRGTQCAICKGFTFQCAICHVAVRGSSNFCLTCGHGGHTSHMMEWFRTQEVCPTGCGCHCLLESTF

[6] = test system: telomerase in human CD4+ Tsen; experiment: Telomerase activity; format: cell-based; conditions: Tsen 3 days after DOS treatment; Fig S4I, n = 5 donors
AMPK1-His-tagged = AMPK1-His-tagged (Homo sapiens, UniProt Q13131); experiment: In vitro pull down with biotinylated DOS, recombinant tagged proteins; format: binding; conditions: DOS-biotin 10 µM, streptavidin beads; Fig 1C
AMPK1-His-tagged, sequence (Q13131 whole entry): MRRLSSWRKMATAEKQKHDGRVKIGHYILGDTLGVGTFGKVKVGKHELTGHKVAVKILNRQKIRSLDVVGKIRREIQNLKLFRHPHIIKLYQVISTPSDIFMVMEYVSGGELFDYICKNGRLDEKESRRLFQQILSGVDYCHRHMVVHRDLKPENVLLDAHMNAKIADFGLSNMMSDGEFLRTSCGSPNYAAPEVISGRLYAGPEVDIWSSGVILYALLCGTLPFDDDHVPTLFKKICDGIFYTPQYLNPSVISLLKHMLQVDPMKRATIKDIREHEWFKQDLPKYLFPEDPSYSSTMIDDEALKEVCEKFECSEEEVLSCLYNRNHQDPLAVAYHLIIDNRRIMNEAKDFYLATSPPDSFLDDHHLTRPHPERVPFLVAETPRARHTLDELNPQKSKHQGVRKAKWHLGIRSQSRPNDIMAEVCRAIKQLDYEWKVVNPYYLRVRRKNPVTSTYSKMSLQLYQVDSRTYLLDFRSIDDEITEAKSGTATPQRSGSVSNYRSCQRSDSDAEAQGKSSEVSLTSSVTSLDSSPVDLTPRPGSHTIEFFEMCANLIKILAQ

[7] = target: T2, ERK, JNK and p38 MAPK in Tsen sestrin 2 immunoprecipitates (sMACs) (Homo sapiens, UniProt P58004); experiment: ELISA-based in vitro kinase assay on sestrin 2 immunoprecipitates; format: biochemical; conditions: DOS 10 µM, 30 minutes, ATP 200 μM; Fig 1I, n = 5 donors
T2 sequence (P58004 1-480): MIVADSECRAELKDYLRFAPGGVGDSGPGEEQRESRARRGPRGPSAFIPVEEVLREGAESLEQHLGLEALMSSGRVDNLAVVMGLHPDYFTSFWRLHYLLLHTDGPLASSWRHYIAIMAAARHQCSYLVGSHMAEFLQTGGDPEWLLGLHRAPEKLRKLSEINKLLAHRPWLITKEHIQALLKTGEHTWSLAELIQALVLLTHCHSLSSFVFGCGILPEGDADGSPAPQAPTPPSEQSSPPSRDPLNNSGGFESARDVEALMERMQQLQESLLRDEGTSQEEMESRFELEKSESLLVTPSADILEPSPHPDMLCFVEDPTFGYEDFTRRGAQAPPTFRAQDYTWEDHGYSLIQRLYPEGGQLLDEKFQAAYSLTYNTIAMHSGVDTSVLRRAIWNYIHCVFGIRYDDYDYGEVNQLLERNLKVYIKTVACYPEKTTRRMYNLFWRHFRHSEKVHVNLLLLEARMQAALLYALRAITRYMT

AMPK in human CD4+ Tsen = experiment: AMPK activity as ACC phosphorylation; format: cell-based; conditions: 4 hours after DOS 10 µM treatment; Fig S3I right, blot number
human CD4+ T cells = experiment: Cellular toxicity by Annexin V / PI staining; format: cell-based; conditions: DOS 10 µM; Fig S4J, n = 4 donors

## CC[C@H](C)[C@@H]1NC(=O)[C@H](Cc2ccccc2)NC(=O)[C@H](C)NC(=O)[C@H](C(C)C)NC(=O)[C@@H]2CCCN2C1=O [DOS] (cyclo(AFIPV))
H1N1 virus
  Lung necrosis after H1N1 infection: no sign of lung necrosis
[1]
  Spontaneous autoimmunity: yet to see any autoimmunity case
[2]
  Binding to primary T cell sMAC: directly bound
[3]
  DOS entrance in sestrin-null T cells: did not enter
[4]
  Direct binding to recombinant sestrins: direct DOS binding to sestrins
[5]
  Binding to GATOR/mTOR complex proteins: not to GATOR/mTOR complex proteins
[6]
  Telomerase activity: not affected
AMPK1-His-tagged
  Direct binding to recombinant AMPK: not AMPK
[7]
  ERK, JNK and p38 MAPK kinase activity (autophosphorylation) in sMAC: suppressed
AMPK in human CD4+ Tsen
  p-ACC/ACC by immunoblotting, fold change to untreated control set as 1: 0.25
Human CD4+ T cells
  Cell damage or death (Annexin-propidium iodide staining): did not cause cell damage or death
